Laboratory results taken from PubChem BioAssay (NCI).
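Results reflect a 48-hour exposure of cells in 96-well plates to compound at five concentrations. Abbreviation: GI50, concentration required for 50% inhibition of growth. TGI: total growth inhibition.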

Experiments:
Assay in all cases: growth of human tumour cells (NCI), 48 h
EKVX NSCLC = tested on: EKVX NSCLC
HOP-92 NSCLC = tested on: HOP-92 NSCLC
IGROV1 ovarian = tested on: IGROV1 ovarian
OVCAR-4 ovarian = tested on: OVCAR-4 ovarian
RPMI-8226 leukemia = tested on: RPMI-8226 leukemia
SF-539 CNS = tested on: SF-539 CNS
TK-10 renal = tested on: TK-10 renal
MALME-3M melanoma = tested on: MALME-3M melanoma

SMILES | GI50 (EKVX NSCLC) | TGI (EKVX NSCLC) | GI50 (HOP-92 NSCLC) | TGI (HOP-92 NSCLC) | GI50 (IGROV1 ovarian) | TGI (IGROV1 ovarian) | GI50 (OVCAR-4 ovarian) | TGI (OVCAR-4 ovarian) | GI50 (RPMI-8226 leukemia) | TGI (RPMI-8226 leukemia) | GI50 (SF-539 CNS) | TGI (SF-539 CNS) | GI50 (TK-10 renal) | TGI (TK-10 renal) | GI50 (MALME-3M melanoma) | TGI (MALME-3M melanoma)
OCC#Cc1ccccc1C#Cc1ccc(C#Cc2ccccc2C#CCO)s1 | 19.9 µM | 43.1 µM | 15.6 µM | 29.7 µM | 13.7 µM | 34.2 µM | 26.4 µM | > 100 µM | 22.2 µM | 49.1 µM | 18.1 µM | 34.2 µM | 16.7 µM | 30.6 µM | – | –
CC1SC(c2c(Cl)cccc2Cl)N(NC(=O)C(O)c2ccccc2)C1=O (stereo not drawn) | > 100 µM | > 100 µM | 57.8 µM | > 100 µM | 62.9 µM | > 100 µM | > 100 µM | > 100 µM | 35.8 µM | > 100 µM | > 100 µM | > 100 µM | > 100 µM | > 100 µM | – | –
COc1ccc2c(c1)cn1c3ccc(O)cc3[nH]c(=O)c21 | 0.797 µM | 19.2 µM | 2.53 µM | 18.2 µM | 0.338 µM | 4.77 µM | 2.41 µM | 13.4 µM | 0.306 µM | 1.93 µM | 0.175 µM | 1.16 µM | 0.881 µM | 2.49 µM | – | –
CCN(CC)CCOc1ccc2c(c1)C(=O)c1cc(OCCN(CC)CC)ccc1-2 | 20 µM | 63.6 µM | – | – | 6.65 µM | 43.2 µM | 5.69 µM | 38.7 µM | – | – | 2.54 µM | 5.72 µM | 19.2 µM | 90.9 µM | 15.6 µM | 33.6 µM
COc1cc(-c2cc(/C=C3\C(=O)Nc4ccccc43)[nH]n2)cc(OC)c1OC | – | – | 1.97 µM | 9.12 µM | 3.14 µM | 14.8 µM | 1.91 µM | 8.98 µM | 1.77 µM | 4.37 µM | 3.49 µM | 16.3 µM | – | – | 2.28 µM | 7.47 µM
C/C1=C\C/C=C(\C)[C@H]2CC(CC/C(C)=C/CC1)[C@](C)(C=O)O2 | > 100 µM | > 100 µM | 39.8 µM | > 100 µM | 18.2 µM | > 100 µM | > 100 µM | > 100 µM | 27.1 µM | 76.8 µM | > 100 µM | > 100 µM | > 100 µM | > 100 µM | – | –
[C-]#[N+][C@]12C(=O)[C@H](CCC1(C)C)C(C)(C)[C@H]1C(=O)N(C)c3cccc2c31 | – | – | 3.11 µM | > 100 µM | – | – | 3.82 µM | > 100 µM | 13.1 µM | > 100 µM | 61.6 µM | > 100 µM | > 100 µM | > 100 µM | – | –
Cc1nc2cc(Nc3nc(Nc4ccc(F)cc4)nc(N4CCN(C)CC4)n3)ccc2n1Cc1ccccc1 | – | – | – | – | 2.45 µM | 5.83 µM | 2.2 µM | 5.87 µM | 1.75 µM | 4.28 µM | 1.73 µM | 3.13 µM | – | – | – | –
C=CCC(N[C@H](CO)c1ccccc1)c1cn(S(=O)(=O)c2ccc(C)cc2)c2ccccc12 (stereo partly drawn) | 25.2 µM | 74.8 µM | 24.9 µM | > 100 µM | 14.6 µM | 47.3 µM | 73.7 µM | > 100 µM | 6.85 µM | 46.2 µM | 21.4 µM | 38.2 µM | 3.62 µM | 18 µM | – | –
CCCCCCCCCCCC(O)=C1C(=O)CC(O)CC1=O (stereo not drawn) | – | > 100 µM | – | > 100 µM | – | > 100 µM | – | > 100 µM | – | > 100 µM | – | > 100 µM | – | > 100 µM | – | –
Cc1ccc2c(c1)O/C(=C\c1ccc([N+](=O)[O-])o1)C2=O | – | – | 1.14 µM | 2.76 µM | 1.42 µM | 4.69 µM | 1.47 µM | 2.84 µM | 0.447 µM | 2.54 µM | – | – | 1.39 µM | 2.75 µM | 2.42 µM | 4.6 µM
O=C(Nc1ccccc1O)c1ccc(CNC(=O)c2sccc2Nc2ccnc(C(F)(F)F)c2)cc1 | 8.77 µM | 57.7 µM | – | – | 14 µM | 32.7 µM | 5.35 µM | > 100 µM | 3.59 µM | 36.2 µM | 3.56 µM | 31.8 µM | 4.76 µM | 22.7 µM | 2.5 µM | 21.5 µM
CC(=O)/C=C/C1=C(c2cccs2)c2ccccc2CC1 | 35.1 µM | > 100 µM | – | – | 19.8 µM | 49.7 µM | 25.1 µM | 64.9 µM | 19.9 µM | 47.6 µM | 27.5 µM | 81 µM | 32 µM | > 100 µM | 28.3 µM | 54.9 µM
O=C(Nc1cccc(O)c1)c1cccc(NC2=C(Cl)C(=O)N(Cc3ccccc3)C2=O)c1 | 17.3 µM | 32.1 µM | 11.7 µM | 29.4 µM | 1.19 µM | 6.11 µM | 19.2 µM | 47.9 µM | 1.49 µM | 27 µM | 3.57 µM | 15.6 µM | 15 µM | 29.8 µM | – | –
